1 compound from patent US5824700A, “Ortho-quinone derivatives novel synthesis therefor and their use in the inhibition of neoplastic cell growth” (Wisconsin Alumni Research Foundation, priority 1996, dated 1998) can be followed below.

pIC50: −log10 of the molar value.

In assay [1] the test system is Topoisomerase II. Briefly: Topoisomerase II-mediated DNA cleavage (electrophoresis). It counts as biochemical, mammalian. The settings on record: gels of FIGS. 9A and 9B. The protocol: Analogous experiments to assay the ability of several of the compounds described herein to induce Topoisomerase II (Topo II)-mediated DNA cleavage were also performed. The results of one such experiment are depicted in the electrophoretegram of FIGS. 9A and 9B. Here, DNA was incubated in the presence of Topo II and several different compounds described herein.
A legend for the compounds which were tested in FIGS. 9A and 9B is as follows: [drawing 25] Lane 1: R=H (β-lapachone) Lane 2: R=OH
In the far left-hand lane of […], DNA alone is shown. Moving to the right, the next lane contains DNA and Topo II (mammalian). Lanes 1-9 of FIGS. 9A and 9B contain a series of concentrations of drugs (see Legend, above) in the presence of DNA and Topo II. Each set of lanes for each drug spans 3 orders of magnitude in concentration (0.1, 1, 10, and 100 μM). […] However, Lanes 1-9, which contain DNA, Topo II, and a drug according to the present invention, show extensive DNA cleavage.

Assay [2] has as its system A549. The assay is described as follows: Colony formation / cell survival assay, A549 lung cancer cells. The assay is classed as cell-based. The settings on record: Homo sapiens, A549, 4 h. The protocol:
The control flasks are treated with DMSO only. […] The remaining flasks are left untouched.
The cells are monitored for colony formation. […] The plating efficiency for each dish is then calculated.
The compounds tested were β-lapachone, 3-hydroxy-β-lapachone, 3,3-DINOR-dunnione (designated "Drug A" in the figures), 3-NOR-dunnione (designated "Drug B" in the figures) and dunnione itself (designated "Drug C" in the figures). A legend for the figures is provided below. The cell lines were cultured and the compounds evaluated according to the standard protocol described above.

Assay [3] relates to MCF7. The assay is described as follows: Colony formation / cell survival assay, MCF7 breast cancer cells. The following applies: Homo sapiens, MCF7, 4 h.
Procedure: 10 standard culture flasks for each drug to be tested are plated with 5×10^5 cells in 5 mL of media and allowed to incubate for 16-24 hours at 37° C.
Fresh stocks of the compounds to be evaluated are prepared in sterile DMSO. For each drug, two of the ten culture flasks prepared on Day 1 are used as controls. The control flasks are treated with DMSO only. […] The remaining flasks are left untouched. The cells are incubated for 4 hours at 37° C.
After 4 hours the control flasks are counted (2 counts for each flask) and the cells per mL calculated based on the average of the control counts. The cells are then replated into six 60 mm dishes for each flask from dilutions based on the cells/mL of the control. (In the various test runs, cell concentrations ranged from approximately 50 to approximately 800 cells per mL.) Day 15-20:
The cells are monitored for colony formation. […] The plating efficiency for each dish is then calculated. The plating efficiencies of the six dishes for each flask are averaged and the standard deviation is calculated. The fraction of cell survival at each concentration is determined based on the controls and plotted as log fraction of cell survival±standard deviation versus the dose of the compound.
In the same fashion as the above tests, several lapachone and dunnione derivatives were evaluated for their efficacy in inhibiting the proliferation of breast cancer cells. In this instance, the cancer cell line utilized was MCF7.
Assay [4] concerns human prostate cancer cell line PC-3. Briefly: IC50 determination (DNA amount and anchorage-dependent colony formation), prostate cancer PC-3. It counts as cell-based. The settings on record: PC-3, 24 hours exposure. The protocol:
(§1) Table 15 lists the IC50 determinations of Drugs B, C, and D against the human prostate cancer cell line PC-3 and the human breast cancer cell line MCF7. IC50 calculations for each cell line were determined by DNA amount and anchorage-dependent colony formation (CF) as described elsewhere. (See Planchon et al. Cancer Res. 55, 3706 (1995), incorporated herein by reference.) In short, IC50 calculations for each cell line were determined by DNA amount and anchorage-dependent colony formation (CF) assays. For the CF assay, cells were seeded at 500 viable cells/well in 6-well plates and incubated overnight, then treated with equal volumes of media containing β-lapachone at final concentrations ranging from 0.005 to 50 μM in half-log increments (controls were treated with 0.25% DMSO, equivalent to the highest dose of β-lapachone used) for 4 hours or for continuous 12 hour exposures. Plates (3 wells/condition) were stained with crystal violet, and colonies of >50 normal-appearing cells were enumerated. IC50 values for various cells were calculated using drug doses with numbers of colonies surrounding 50% of control. For DNA assays, plates were harvested for IC50 determinations 8 days after treatment using a CytoFluor 2350 fluorescence measurement system (Millipore). Six-well samplings were included in the calculation of DNA fluor units for each dose. A graph of β-lapachone dose versus percentage control DNA in fluor units was used to calculate each IC50. The cells were exposed for 24 hours to the tricyclic naphthoquinones. All experiments were repeated at least twice, each in duplicate. PC-3 is an androgen-independent prostate cancer cell line.

For assay [5], the system named is human breast cancer cell line MCF7. The assay is described as follows: IC50 determination (DNA amount and anchorage-dependent colony formation), breast cancer MCF7. It counts as cell-based. The settings on record: MCF7, 24 hours exposure. The protocol:
as §1

As for `CC1OC2=C(C(=O)C(=O)c3ccccc32)C1(C)C` (stereo not shown) [Drug C, 2,3,3-trimethyl-2,3,4,5-tetrahydro-naphtho(2,3-b)dihydrofuran-6,7-dione], in assay [1], the “intracellular target (in words)” value is “Topo II is an intracellular target”. The pIC50 is 5.37 in assay [2] (A549, 4 h exposure, FIG. 5, read-out: ED50 (the source's name)); 5.85 in assay [3] (read-out: ED50, MCF7, 4 h exposure, FIG. 8); 6.22 in assay [4]; 6.15 in assay [5]. Also, the viability at 1 µM in assay [2] (read-out: Fraction of Cell Survival, A549, FIG. 5, 1 μM, 4 h) was determined as 110%; in assay [3] (read-out: Fraction of Cell Survival, MCF7, FIG. 8, 1 μM, 4 h), 55.8%. Moreover, the viability at 5 µM in assay [2] (read-out: Fraction of Cell Survival, A549, FIG. 5, 5 μM, 4 h) worked out at 40%; in assay [3] (read-out: Fraction of Cell Survival, MCF7, FIG. 8, 5 μM, 4 h), 0.65%. The viability at 10 µM in assay [2] (read-out: Fraction of Cell Survival, A549, FIG. 5, 10 μM, 4 h) was 0%; in assay [3] (read-out: Fraction of Cell Survival, MCF7, FIG. 8, 10 μM, 4 h), 0.32%. The viability at 50 µM in assay [2] (read-out: Fraction of Cell Survival, A549, FIG. 5, 50 μM, 4 h) was 0%; in assay [3] (read-out: Fraction of Cell Survival, MCF7, FIG. 8, 50 μM, 4 h), 0.65%.
